Values after ≈ are worked out from the molar mass of the structure shown. Active and inactive are the calls of the source. The rule behind the calls is not given here.
What was measured:
[1] = tested on: P388; assay: Cytotoxicity against mouse P388 cells; assay type: functional
[2] = tested on: KB; assay: Cytotoxicity against human KB cells; assay type: functional
[3] = read-out: ED50 (the source's name)

With `COc1cccc2c1cc1c3c(cc4c(c32)OCO4)C(=O)N1` the Activity [1] was “inactive” and the Activity [2] was “inactive”.

For `COc1cc2c3c(cc4ccccc4c3c1O)NC2=O`, the Activity [1] was “inactive” and the Activity [2] was “inactive”.

With `COc1c(O)c(OC)c2c3c(cc4ccccc42)NC(=O)c13` the Activity [1] was “inactive” and the Activity [2] was “inactive”.

Compound `COc1c(O)cc2c3c(cc4ccccc4c13)NC2=O` [ARISTOLACTAM AII] has an EC50 [1, 3] of 3.2 µg/mL (≈ 12.1 µM) and an EC50 [2, 3] of 2.1 µg/mL (≈ 7.92 µM).

Source: ChEMBL document CHEMBL1150727, “New cytotoxic aristolactams from Pararistolochia flos-avis” (1987)
